The subject of data set [1] is polychromatic erythrocytes. The data set can be described thus: Micronucleus frequencies (MNPCEs) as genotoxicity endpoint. The conditions noted are these: 30 mg/kg, seven days. It counts as in vivo, Sprague Dawley male rats. As for the experimental part: In addition to sampling for biochemical and haematological analysis, one drop of blood samples was obtained from the animals for evaluating micronucleus frequencies as genotoxicity endpoint at the end of the experiments. Three different smears of each rat were prepared using pre-coded and cold slides, then the slides air-dried at room temperature, and fixed in ethanol for 10 min, and stained with Giemsa. […] The incidence of MN-PCEs was determined by scoring a total of 3000 PCE per animal and results were expressed as % MN [12].

The subject of a further data set is PKL. Briefly: Western blot, PKL. The class given is cell-based, human. Conditions: 10 μM, 2 days. As for the experimental part:
(§1) HepG2 cells were seeded into a 6-well plate at 400,000 cells per well. After treatment with 10 μM of JNK-IN-5A and its derivatives for two days, lysates were harvested with CelLytic M (C2978, Sigma-Aldrich). 20 μg lysate was prepared with 2× Laemmli Sample Buffer (1610737, Biorad). SDS PAGE were performed using Mini-PROTEAN® TGX™ Precast Gels (Bio-Rad) and transferred using Trans-Blot® Turbo™ Transfer System (Bio-Rad). Primary antibody, PARP (95425, Cell signalling), Caspase 3 (ab32042, abcam), Bcl-2 (ab182858), STAT1 (HPA000982, Merk), PKL (06653, Sigma), PKM (4053S, Cell signalling), GAPDH (ab8245, abcam), P53 (ab32389, abcam), p21 (ab109199, abcam), p-S349 p62 (ab211324, abcam), p62 (ab109012, abcam), c-Myc (ab32072, abcam), GPX4 (ab125066, abcam), MMP9 (MA5-32705, Invitrogen), β-actin (ab8227, abcam), and α-tubulin (ab7291, abcam) were blotted overnight and Goat Anti-Rabbit HRP (ab205718) and goat anti-mouse IgG-HRP (sc2005, Santa Cruz Biotechnology, Inc.) were blotted for secondary antibody for one hour. ImageQuantTMLAS 500 (29-0050-63, GE) was used to detect protein bands.

Another data set deals with c-Myc. Briefly: Nuclear protein western blot, c-Myc. The class given is cell-based, human. Conditions: 10 μM, 2 days. The method, then: as §1
The test system of data set [2] is HepG2 cells. Briefly: DAPI and PI staining for necrotic cell death. It counts as cell-based, human. The conditions noted are these: 10 μM, 2 days. The method, then:
HepG2 cells were treated with 10 μM of the JNK-IN-5A derivatives for 2 days and cells were stained with DAPI (Blue) and PI (Red) for 30 min, at live cells. PI positive necrotic cells were counted and plotted.

The test system of data set [3] is HepG2 cells. The data set can be described thus: RNA sequencing, GSEA and PROGENy pathway analysis. The class given is cell-based, human. The method, then: RNA samples for RNA sequencing were extracted with RNeasy Plus Mini Kit (74134, QIAGEN). RIN score of total RNA samples was measured using RNA 6000 Nano kit (5067-1511, Agilent). 2100 Bioanalyzer Instrument (G2939BA, Agilent) was used for RIN score test using electrophoresis. Samples with a […] were submitted to SZA Omics, Istanbul for RNA sequencing analysis.
The quality, quantity, and RNA integrity number (RIN) of the samples were assessed with NanoDrop (Thermo Fisher, USA), and Bioanalyzer (2100, Agilent Technology, USA). For the RNA samples, the ratio of absorbance at 260 and 280 nm (A260/280) of […], A260/230 of 2.0-2.2, and RIN>8.0 are acceptable. All samples passed the quality control.
The Illumina Stranded Total RNA Prep, Ligation with Ribo-Zero Plus kit was used for the construction of NGS libraries from the samples with acceptable quality parameters. In short, RNA samples were sequenced with 2×100 paired-end reads by the NovaSeq 6000 system. Raw sequencing data (.bcl) was demultiplexed and converted to FASTQ files with DRAGEN Software (v3.9.5). The data was delivered in FASTQ format using Illumina 1.8 quality scores.
The quality of FASTQ files was assessed by FastQC (v0.11.9) software to ensure the quality of every sequenced sample. Kallisto (v0.48.0)16 was used to quantify the count and transcripts per million (TPM) values of transcripts based on the Homo sapiens reference cDNA (version GRCh38, Ensembl release 110). The transcript read counts and TPM values were assembled to gene level using the R package tximport (v1.28.0), with only protein-coding transcripts and genes included. The lowly expressed genes with an average count below 5 were filtered out, resulting in a total of 14,592 genes for the downstream analysis.
Differential expression analysis was conducted using the R package DESeq2 (v1.40.2) followed by the Benjamini-Hochberg procedure to correct p-values. […]

The subject of data set [4] is HepG2 cells. The data set can be described thus: Lipid peroxidation assay. It counts as cell-based, human. As for the experimental part: HepG2 cells were seeded into a 6-well plate at 400,000 cells per well. After treatment with the compounds at desired concentration and time, TMRE (ab113852, abcam), Autophagy (ab139484, abcam), ROS (ab113851, abcam), and Lipid peroxidation (ab243377, abcam) assay were performed according to manufacturer's instructions. Fluorescence images were taken using ZOE™ Fluorescent Cell Imager (Biorad) and ROI of fluorescence intensity was measured and calculated by Image J. For microplate reader florescence assay, 40,000 of HepG2 cells were seeded into a 96-well plate and triplicated. GFP (Ex480 nm, Em530 nm) and RFP (Ex549 nm, Em574 nm) were measured using a microplate reader (Hidex Sense Meta Plus).

For the molecule `N#Cc1c(NC(=O)c2cccc3ccccc23)sc2c1CCCC2` [JNK-IN-5A, N-(3-cyano-4,5,6,7-tetrahydrobenzo[b]thiophen-2-yl)-1-naphthamide], the genotoxic potential entry in data set [1] is on record as “non-genotoxic”. Also, the “frequencies of MNPCEs compared to Ctrl animals” value in data set [1] (p>0.05) is “not statistically different”. In addition, the PKL expression entry in the data set with PKL is on record as “notably decreased”. The “nuclear c-Myc expression” value in the data set on c-Myc is “significantly reduced”.

In the case of `COc1ccc(C(=O)Nc2sc3c(c2C#N)CCCCC3)cc1OC` [PKL-A135, N-(3-cyano-5,6,7,8-tetrahydro-4H-cyclohepta[b]thiophen-2-yl)-3,4-dimethoxy-benzamide], the “necrotic cell death (PI staining)” value in the data set with HepG2 cells [2] was “significantly induced necrotic cell death”. In the data set on HepG2 cells [3], the “inhibition of cell cycle-related pathways (E2F targets, G2M checkpoint), GSEA” value was “most potent inhibitor” and the “p53 pathways activity (PROGENy)” value is recorded as “significantly activated”.

Take `N#Cc1c(NC(=O)c2cccc3ccccc23)sc2c1CCN(CC(=O)Nc1cccc(Br)c1)C2` [PKL-B171]: in the data set on HepG2 cells [2], the “necrotic cell death (PI staining)” value is “significantly induced necrotic cell death”. Besides, the “nuclear c-Myc expression” value in the data set on c-Myc is listed as “most substantial decrease”. Moreover, in the data set on HepG2 cells [4], the “GFP/RFP ratio (lipid peroxidation)” value is given as “statistically significant increase”. Further, the “p53 pathways activity (PROGENy)” value with HepG2 cells [3] was “significantly activated”.

The values are drawn from patent US20260234159A1, “SMALL MOLECULE TREATMENT OF FATTY LIVER DISEASE AND HCC” (SCANDIEDGE THERAPEUTICS AB, priority 2023, published 2026).
